Key:
Format in all cases: biochemical
[1] = molecular target: T1, JAK1 (aa 850-1154, catalytic domain, GST-tag) (Homo sapiens, UniProt P23458); test: JAK kinase assay (HTRF, phosphorylation of TK substrate-biotin), JAK1; conditions: ATP at Km (7 μM); read-out: JAK1 kinase inhibitory activity (EC50 indicator)
T1 construct: JAK1 (aa 850-1154) and TYK2 (aa 871-1187) are expressed with an N-terminally fused GST-tag; GST (N); purchased Carna Biosciences, Inc; host or cells: baculovirus expression system
Method: (§1) Human baculovirus-expressed JAK1, 2, 3 and TYK2 were purchased from Carna Biosciences, Inc. All four purified enzymes contain only the catalytic domain. JAK1 (aa 850-1154) and TYK2 (aa 871-1187) are expressed with an N-terminally fused GST-tag, and JAK2 and JAK3 with an N-terminally fused His-tag.
(§2) Inhibition of phosphorylation of a synthetic peptide was measured in an HTRF-based assay using the TK substrate-Biotin from the Cisbio HTRFKinEASE TK kit. First, 2 μl of TK solution (TK substrate-biotin in kinase buffer [1× enzymatic buffer from HTRFKinEASE TK kit, 1 mM DTT]) is added to a plate containing 1 μl prediluted compound (final assay concentration DMSO: 0.75%). Then, 5 μl kinase-ATP mix (prepared in kinase buffer) is added to the wells and the plates are incubated at RT for 20-30 min. For all four kinases a concentration of ATP that corresponded to the Km for ATP was used. The final concentrations of buffers, substrate, kinase and ATP were: JAK1: 50 mM Hepes buffer pH 7.0, 0.01% BSA, 10 mM MgCl2, 1 mM DTT, 7 μM ATP, 50 nM SEB, 1 μM TK Substrate-Biotin and 5 ng JAK1; JAK2: 50 mM Hepes buffer pH 7.0, 0.01% BSA, 5 mM MgCl2, 1 mM DTT, 4 μM ATP, 1 μM TK Substrate-Biotin and 0.1 ng JAK2; JAK3: 50 mM Hepes buffer pH 7.0, 0.01% BSA, 5 mM MgCl2, 1 mM DTT, 2 μM ATP, 1 μM TK Substrate-Biotin and 0.3 ng JAK3; TYK2: 50 mM Hepes buffer pH 7.0, 0.01% BSA, 5 mM MgCl2, 1 mM DTT, 13 μM ATP, 50 nM SEB, 1 μM TK Substrate-Biotin and 0.8 ng TYK2. Thereafter, the kinase reaction is stopped by adding 4 μl detection mix (final concentrations: 50 mM Hepes buffer pH 7.0, 0.01% BSA, 0.8 M KF, 20 mM EDTA, 42 nM Streptavidin-XL665 and 1:400 STK Ab Cryptate) and the plates are incubated overnight in the dark. The HTRF signal is read using an Envision plate reader.
(§3) In Table 1 selected JAK kinase inhibitory activities are listed with the following indicators: I: EC50<100 nM, II: 100 nM≦EC50≦500 nM and III: EC50>500 nM

[2] = molecular target: T2, JAK2 (catalytic domain, His-tag) (Homo sapiens, UniProt O60674); test: JAK kinase assay (HTRF, phosphorylation of TK substrate-biotin), JAK2; conditions: ATP at Km (4 μM); read-out: JAK2 kinase inhibitory activity (EC50 indicator)
T2 construct: All four purified enzymes contain only the catalytic domain; His (N); purchased Carna Biosciences, Inc; host or cells: baculovirus expression system
Method: as §1, §2, §3

[3] = molecular target: T3, JAK3 (catalytic domain, His-tag) (Homo sapiens, UniProt P52333); test: JAK kinase assay (HTRF, phosphorylation of TK substrate-biotin), JAK3; conditions: ATP at Km (2 μM); read-out: JAK3 kinase inhibitory activity (EC50 indicator)
T3 construct: All four purified enzymes contain only the catalytic domain; His (N); purchased Carna Biosciences, Inc; host or cells: baculovirus expression system
Method: as §1, §2, §3

[4] = molecular target: T4, TYK2 (aa 871-1187, catalytic domain, GST-tag) (Homo sapiens, UniProt P29597); test: JAK kinase assay (HTRF, phosphorylation of TK substrate-biotin), TYK2; conditions: ATP at Km (13 μM); read-out: TYK2 kinase inhibitory activity (EC50 indicator)
T4 construct: JAK1 (aa 850-1154) and TYK2 (aa 871-1187) are expressed with an N-terminally fused GST-tag; GST (N); purchased Carna Biosciences, Inc; host or cells: baculovirus expression system
T4 sequence (P29597 871-1187): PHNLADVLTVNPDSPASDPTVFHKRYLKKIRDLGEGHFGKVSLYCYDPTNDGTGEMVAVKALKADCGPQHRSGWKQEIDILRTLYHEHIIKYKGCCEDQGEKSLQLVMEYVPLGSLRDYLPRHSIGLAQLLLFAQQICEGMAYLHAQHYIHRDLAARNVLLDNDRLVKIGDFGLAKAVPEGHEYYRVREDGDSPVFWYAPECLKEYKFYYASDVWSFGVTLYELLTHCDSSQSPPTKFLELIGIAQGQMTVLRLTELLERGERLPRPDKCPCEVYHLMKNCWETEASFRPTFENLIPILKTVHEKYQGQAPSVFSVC
Method: as §1, §2, §3

T2 sequence (O60674 849-1124 limits assumed): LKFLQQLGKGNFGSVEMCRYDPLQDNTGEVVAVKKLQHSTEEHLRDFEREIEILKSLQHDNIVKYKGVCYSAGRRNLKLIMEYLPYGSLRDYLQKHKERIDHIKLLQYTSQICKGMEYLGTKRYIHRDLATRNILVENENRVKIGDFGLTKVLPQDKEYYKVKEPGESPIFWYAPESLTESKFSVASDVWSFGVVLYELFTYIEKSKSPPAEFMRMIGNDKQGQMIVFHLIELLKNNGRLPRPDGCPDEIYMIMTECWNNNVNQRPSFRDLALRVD
T1 sequence (P23458 850-1154): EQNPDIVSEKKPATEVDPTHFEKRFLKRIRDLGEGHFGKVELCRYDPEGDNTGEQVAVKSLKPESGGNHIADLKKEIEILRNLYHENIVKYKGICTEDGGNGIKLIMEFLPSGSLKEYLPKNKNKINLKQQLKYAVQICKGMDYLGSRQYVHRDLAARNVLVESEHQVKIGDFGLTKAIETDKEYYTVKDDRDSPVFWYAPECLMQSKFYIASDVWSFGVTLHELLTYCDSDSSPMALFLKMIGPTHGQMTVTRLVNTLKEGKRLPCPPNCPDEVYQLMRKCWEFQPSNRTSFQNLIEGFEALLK
T3 sequence (P52333 822-1111 limits assumed): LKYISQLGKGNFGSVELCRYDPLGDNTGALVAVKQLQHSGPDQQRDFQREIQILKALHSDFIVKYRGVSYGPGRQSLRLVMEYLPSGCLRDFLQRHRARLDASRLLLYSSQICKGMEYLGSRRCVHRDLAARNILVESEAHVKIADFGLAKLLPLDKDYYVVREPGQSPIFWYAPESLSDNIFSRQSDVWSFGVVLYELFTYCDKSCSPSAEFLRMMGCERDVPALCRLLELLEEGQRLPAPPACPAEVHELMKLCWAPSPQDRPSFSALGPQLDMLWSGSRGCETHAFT

Row | SMILES | EC50 [1] | EC50 [2] | EC50 [3] | EC50 [4]
1 | Cc1ccc(C(=O)N2CCN(c3ncnc4[nH]ccc34)CC23CC3)cc1C(=O)Nc1cccc(C(F)(F)F)c1 [Example 41, 2-Methyl-5-[7-(7H-pyrrolo[2,3-d]pyrimidin-4-yl)-4,7-diazaspiro[2.5]octane-4-carbonyl]-N-(3-trifluoromethylphenyl)benzamide] | 100 to 500 nM | > 500 nM | > 500 nM | > 500 nM
2 | O=C(c1cccnc1)N1CCN(c2ncnc3[nH]ccc23)CC12CC2 [Example 42, Pyridin-3-yl-[7-(7H-pyrrolo[2,3-d]pyrimidin-4-yl)-4,7-diazaspiro[2.5]oct-4-yl]methanone] | < 100 nM | < 100 nM | 100 to 500 nM | > 500 nM
3 | N#Cc1cccc(C(=O)N2CCN(c3ncnc4[nH]ccc34)CC23CC3)c1 [Example 44, 3-[7-(7H-Pyrrolo[2,3-d]pyrimidin-4-yl)-4,7-diazaspiro[2.5]octane-4-carbonyl]benzonitrile] | < 100 nM | < 100 nM | < 100 nM | < 100 nM
4 | O=C(c1ccc(C(F)(F)F)cc1)N1CCN(c2ncnc3[nH]ccc23)CC12CC2 [Example 48, [7-(7H-Pyrrolo[2,3-d]pyrimidin-4-yl)-4,7-diaza-spiro[2.5]oct-4-yl]-(4-trifluoromethylphenyl)methanone] | < 100 nM | < 100 nM | 100 to 500 nM | > 500 nM
5 | CC(=O)N1CCCC1C(=O)N1CCN(c2ncnc3[nH]ccc23)CC12CC2 (centres unmarked) [Example 50, 1-{2-[7-(7H-Pyrrolo[2,3-d]pyrimidin-4-yl)-4,7-diazaspiro[2.5]octane-4-carbonyl]pyrrolidin-1-yl}ethanone] | > 500 nM | > 500 nM | > 500 nM | > 500 nM
6 | CCCS(=O)(=O)N1[C@@H]2CC[C@H]1CN(c1ncnc3[nH]ccc13)C2 [Example 51, 4-[8-(Propane-1-sulfonyl)-3,8-diaza-bicyclo[3.2.1]oct-3-yl]-7H-pyrrolo[2,3-d]pyrimidine] | 100 to 500 nM | 100 to 500 nM | > 500 nM | > 500 nM
7 | N#CCC(=O)N1[C@@H]2CC[C@H]1CN(c1ncnc3[nH]ccc13)C2 [Example 53, 3-Oxo-3-[3-(7H-pyrrolo[2,3-d]pyrimidin-4-yl)-3,8-diazabicyclo[3.2.1]oct-8-yl]propionitrile] | 100 to 500 nM | 100 to 500 nM | 100 to 500 nM | > 500 nM
8 | N#CCC(=O)N1CCN(c2ncnc3[nH]ccc23)CC12CC2 [Example 54, 3-Oxo-3-[7-(7H-pyrrolo[2,3-d]pyrimidin-4-yl)-4,7-diazaspiro[2.5]oct-4-yl]propionitrile] | < 100 nM | < 100 nM | < 100 nM | > 500 nM
9 | O=C(c1cc2ccccc2[nH]1)N1CCN(c2ncnc3[nH]ccc23)CC12CC2 [Example 55, (1H-Indol-2-yl)-[7-(7H-pyrrolo[2,3-d]pyrimidin-4-yl)-4,7-diazaspiro[2.5]oct-4-yl]methanone] | < 100 nM | < 100 nM | < 100 nM | 100 to 500 nM
10 | O=C(c1cccnc1)N1[C@@H]2CC[C@H]1CN(c1ncnc3[nH]ccc13)C2 [Example 57, Pyridin-3-yl-[3-(7H-pyrrolo[2,3-d]pyrimidin-4-yl)-3,8-diazabicyclo[3.2.1]oct-8-yl]methanone] | 100 to 500 nM | 100 to 500 nM | > 500 nM | > 500 nM
11 | O=C(OCc1ccccc1)N1[C@@H]2CC[C@H]1CN(c1ncnc3[nH]ccc13)C2 [Example 58, 3-(7H-Pyrrolo[2,3-d]pyrimidin-4-yl)-3,8-diazabicyclo[3.2.1]octane-8-carboxylic acid benzyl ester] | < 100 nM | < 100 nM | 100 to 500 nM | > 500 nM
12 | C#CCOC(=O)N1[C@@H]2CC[C@H]1CN(c1ncnc3[nH]ccc13)C2 [Example 59, 3-(7H-Pyrrolo[2,3-d]pyrimidin-4-yl)-3,8-diazabicyclo[3.2.1]octane-8-carboxylic acid prop-2-ynyl ester] | 100 to 500 nM | 100 to 500 nM | 100 to 500 nM | > 500 nM
13 | N#Cc1csc(C(=O)N2CCN(c3ncnc4[nH]ccc34)CC23CC3)c1 [Example 60, 5-[7-(7H-Pyrrolo[2,3-d]pyrimidin-4-yl)-4,7-diaza-spiro[2.5]octane-4-carbonyl]-thiophene-3-carbonitrile] | < 100 nM | < 100 nM | < 100 nM | < 100 nM

Now from value to molecule:

Row | EC50 [1] | EC50 [2] | EC50 [3] | EC50 [4] | SMILES
14 | 100 to 500 nM | 100 to 500 nM | 100 to 500 nM | > 500 nM | CC(=O)N1CCC(C(=O)N2CCN(c3ncnc4[nH]ccc34)CC23CC3)CC1 [Example 43, 1-{4-[7-(7H-Pyrrolo[2,3-d]pyrimidin-4-yl)-4,7-diazaspiro[2.5]octane-4-carbonyl]piperidin-1-yl}ethanone]
15 | < 100 nM | < 100 nM | < 100 nM | > 500 nM | CC(C)(C)OC(=O)N1CCN(c2ncnc3[nH]ccc23)CC12CC2 [Example 45, 7-(7H-pyrrolo[2,3-d]pyrimidin-4-yl)-4,7-diazaspiro[2.5]octane-4-carboxylic acid tert-butyl ester]
16 | 100 to 500 nM | 100 to 500 nM | > 500 nM | > 500 nM | O=C(NC1CCCCC1)N1[C@@H]2CC[C@H]1CN(c1ncnc3[nH]ccc13)C2 [Example 46, 3-(7H-Pyrrolo[2,3-d]pyrimidin-4-yl)-3,8-diaza-bicyclo[3.2.1]octane-8-carboxylic acid cyclohexylamide]
17 | 100 to 500 nM | 100 to 500 nM | 100 to 500 nM | > 500 nM | O=C1OCCC1NC(=S)N1[C@@H]2CC[C@H]1CN(c1ncnc3[nH]ccc13)C2 (some centres unmarked) [Example 47, 3-(7H-Pyrrolo[2,3-d]pyrimidin-4-yl)-3,8-diaza-bicyclo[3.2.1]octane-8-carbothioic acid (2-oxo-tetrahydro-furan-3-yl)-amide]
18 | < 100 nM | < 100 nM | 100 to 500 nM | > 500 nM | NC(=O)c1ccc(C(=O)N2CCN(c3ncnc4[nH]ccc34)CC23CC3)cc1 [Example 49, 4-[7-(7H-Pyrrolo[2,3-d]pyrimidin-4-yl)-4,7-diazaspiro[2.5]octane-4-carbonyl]benzamide]
19 | 100 to 500 nM | < 100 nM | 100 to 500 nM | 100 to 500 nM | CCOC(=O)N1[C@@H]2CC[C@H]1CN(c1ncnc3[nH]ccc13)C2 [Example 52, 3-(7H-Pyrrolo[2,3-d]pyrimidin-4-yl)-3,8-diazabicyclo[3.2.1]octane-8-carboxylic acid ethyl ester]
20 | < 100 nM | < 100 nM | 100 to 500 nM | > 500 nM | O=C(c1ccc(=O)[nH]c1)N1CCN(c2ncnc3[nH]ccc23)CC12CC2 [Example 56, 5-[7-(7H-Pyrrolo[2,3-d]pyrimidin-4-yl)-4,7-diazaspiro[2.5]octane-4-carbonyl]-1H-pyridin-2-one]

Reference: patent publication US9346809B2 (LEO PHARMA A/S, priority 2009, dated 2016)
